Assay results reported in ChEMBL document CHEMBL2086224, “The design, synthesis, and biological evaluation of potent receptor tyrosine kinase inhibitors” (Bioorg Med Chem Lett, 2012).
Blank lines part the entries; values can stand above or below the compound they belong to.

What was measured:
[1] = Clearance in rat; format: ADME, organism-based; conditions: in vivo
[2] = Oral bioavailability in rat; format: ADME, organism-based; conditions: in vivo
[3] = AUC (0 to infinity) in rat at 10 mg/kg, po; format: ADME, organism-based; parameters: time infinity, dose 10 mg/kg, route oral; conditions: plasma
[4] = Half life in rat at 10 mg/kg, po; format: ADME, organism-based; parameters: dose 10 mg/kg, route oral; conditions: in vivo
[5] = Oral bioavailability in rat at 10 mg/kg; format: ADME, organism-based; conditions: in vivo
[6] = Drug uptake in human MDA-MB-231 cells xenografted mouse tumor at 10 mg/kg; format: ADME, organism-based, Neoplasm; parameters: dose 10 mg/kg; conditions: in vivo, read-out: Drug uptake
[7] = Drug uptake in human MDA-MB-231 cells xenografted mouse tumor at 30 mg/kg; format: ADME, organism-based, Neoplasm; parameters: dose 30 mg/kg; conditions: in vivo, read-out: Drug uptake
[8] = Drug uptake in human MDA-MB-231 cells xenografted mouse tumor at 60 mg/kg; format: ADME, organism-based, Neoplasm; parameters: dose 60 mg/kg; conditions: in vivo, read-out: Drug uptake
[9] = Drug uptake in human MDA-MB-231 cells xenografted mouse tumor at 100 mg/kg; format: ADME, organism-based, Neoplasm; parameters: dose 100 mg/kg; conditions: in vivo, read-out: Drug uptake
[10] = Plasma concentration in athymic nu/nu mouse bearing human MDA-MB-231 tumor at 10 to 100 mg/kg, po administered QD for 14 days; format: ADME, organism-based; parameters: dose 10-100 mg/kg, route oral
[11] = Plasma concentration in athymic nu/nu mouse bearing human HT-29 tumor at 10 to 100 mg/kg, po administered QD for 14 days; format: ADME, organism-based; parameters: dose 10-100 mg/kg, route oral
[12] = Plasma concentration in VEGF stimulated-mouse at 1 mg/kg, po after 4 hrs; format: ADME, organism-based; parameters: dose 1 mg/kg, route oral
[13] = Plasma concentration in VEGF stimulated-mouse at 3 mg/kg, po after 4 hrs; format: ADME, organism-based; parameters: dose 3 mg/kg, route oral
[14] = Plasma concentration in VEGF stimulated-mouse at 10 mg/kg, po after 4 hrs; format: ADME, organism-based; parameters: dose 10 mg/kg, route oral
[15] = Plasma concentration in VEGF stimulated-mouse at 30 mg/kg, po after 4 hrs; format: ADME, organism-based; parameters: dose 30 mg/kg, route oral
[16] = Plasma concentration in VEGF stimulated-mouse at 60 mg/kg, po after 4 hrs; format: ADME, organism-based; parameters: dose 60 mg/kg, route oral
[17] = Plasma concentration in VEGF stimulated-mouse at 100 mg/kg, po after 4 hrs; format: ADME, organism-based; parameters: dose 100 mg/kg, route oral
[18] = test system: Lung; assay: Drug uptake in VEGF-stimulated mouse lung at 1 mg/kg, po after 4 hrs; format: ADME, organism-based; parameters: dose 1 mg/kg, route oral; conditions: in vivo, BLD = below limit of detection
[19] = Drug uptake in VEGF-stimulated mouse lung at 3 mg/kg, po after 4 hrs; format: ADME, organism-based; parameters: dose 3 mg/kg, route oral; conditions: read-out: Drug uptake
[20] = Drug uptake in VEGF-stimulated mouse lung at 10 mg/kg, po after 4 hrs; format: ADME, organism-based; parameters: dose 10 mg/kg, route oral; conditions: read-out: Drug uptake
[21] = Drug uptake in VEGF-stimulated mouse lung at 30 mg/kg, po after 4 hrs; format: ADME, organism-based; parameters: dose 30 mg/kg, route oral; conditions: read-out: Drug uptake
[22] = Drug uptake in VEGF-stimulated mouse lung at 60 mg/kg, po after 4 hrs; format: ADME, organism-based; parameters: dose 60 mg/kg, route oral; conditions: read-out: Drug uptake
[23] = Drug uptake in VEGF-stimulated mouse lung at 100 mg/kg, po after 4 hrs; format: ADME, organism-based; parameters: dose 100 mg/kg, route oral; conditions: read-out: Drug uptake
[24] = test system: Plasma; assay: Plasma concentration in human MDA-MB-231 cells xenografted mouse at 1 mg/kg; format: ADME, organism-based; parameters: dose 1 mg/kg; conditions: in vivo, BLD = below limit of detection
[25] = test system: Plasma; assay: Plasma concentration in human MDA-MB-231 cells xenografted mouse at 3 mg/kg; format: ADME, organism-based; parameters: dose 3 mg/kg; conditions: in vivo
[26] = test system: Plasma; assay: Plasma concentration in human MDA-MB-231 cells xenografted mouse at 10 mg/kg; format: ADME, organism-based; parameters: dose 10 mg/kg; conditions: in vivo
[27] = test system: Plasma; assay: Plasma concentration in human MDA-MB-231 cells xenografted mouse at 30 mg/kg; format: ADME, organism-based; parameters: dose 30 mg/kg; conditions: in vivo
[28] = test system: Plasma; assay: Plasma concentration in human MDA-MB-231 cells xenografted mouse at 60 mg/kg; format: ADME, organism-based; parameters: dose 60 mg/kg; conditions: in vivo
[29] = test system: Plasma; assay: Plasma concentration in human MDA-MB-231 cells xenografted mouse at 100 mg/kg; format: ADME, organism-based; parameters: dose 100 mg/kg; conditions: in vivo
[30] = Drug uptake in human MDA-MB-231 cells xenografted mouse tumor at 1 mg/kg; format: ADME, organism-based, Neoplasm; parameters: dose 1 mg/kg; conditions: in vivo, BLD = below limit of detection
[31] = Drug uptake in human MDA-MB-231 cells xenografted mouse tumor at 3 mg/kg; format: ADME, organism-based, Neoplasm; parameters: dose 3 mg/kg; conditions: in vivo, BLD = below limit of detection
[32] = Permeability across MDCK cells; format: ADME, cell-based, Canis lupus familiaris; conditions: dog, read-out: permeability

Compound: CCN1CCC(Nc2ccc3c(c2)C(=C(c2ccc(C)cc2)c2nc4ccccc4[nH]2)C(=O)N3)CC1 (mixture of isomers)
AUC(0-inf) [3]: 2.36 µM·h
half-life [4]: 276 min
bioavailability [5]: 55%

Compound: CCN1CCC(Nc2ccc3c(c2)C(=C(c2ccc(OC)cc2)c2nc4ccccc4[nH]2)C(=O)N3)CC1 (mixture of isomers)
AUC(0-inf) [3]: 0.33 µM·h
half-life [4]: 450 min
bioavailability [5]: 27%

Compound: CCN1CCC(Nc2ccc3c(c2)C(=C(c2cc(F)cc(F)c2)c2nc4ccccc4[nH]2)C(=O)N3)CC1 (mixture of isomers)
AUC(0-inf) [3]: 3.14 µM·h
half-life [4]: 228 min
bioavailability [5]: 72%

Compound: CCN1CCC(Nc2ccc3c(c2)C(=C(c2cccc(F)c2)c2ncc[nH]2)C(=O)N3)CC1 (mixture of isomers)
AUC(0-inf) [3]: 1.12 µM·h
half-life [4]: 324 min
bioavailability [5]: 15%

Compound: CCN1CCC(Nc2ccc3c(c2)C(=C(c2ccc(Cl)cc2)c2ncc[nH]2)C(=O)N3)CC1 (mixture of isomers)
concentration [6]: 340 nM
concentration [7]: 1400 nM
concentration [8]: 3.6 µM
concentration [9]: 8.8 µM
concentration at 336 h [10]: 1000 nM
concentration at 336 h [11]: 1000 nM
AUC(0-inf) [3]: 5.04 µM·h
half-life [4]: 642 min
bioavailability [5]: 63%
concentration at 4 h [12]: 4 nM
concentration at 4 h [13]: 10 nM
concentration at 4 h [14]: 20 nM
concentration at 4 h [15]: 10 nM
concentration at 4 h [16]: 10 nM
concentration at 4 h [17]: 620 nM
Drug uptake [18]: BLD
concentration at 4 h [19]: 70 nM
concentration at 4 h [20]: 280 nM
concentration at 4 h [21]: 470 nM
concentration at 4 h [22]: 810 nM
concentration at 4 h [23]: 3.55 µM
Cp [24]: BLD
concentration [25]: 10 nM
concentration [26]: 40 nM
concentration [27]: 200 nM
concentration [28]: 260 nM
concentration [29]: 800 nM
Drug uptake [30]: BLD
Drug uptake [31]: BLD
Papp [32]: 6.8 ×10⁻⁶ cm/s

Compound: CCN1CCC(Nc2ccc3c(c2)C(=C(c2cccc(F)c2)c2ncc(C)[nH]2)C(=O)N3)CC1 (mixture of isomers)
AUC(0-inf) [3]: 1.9 µM·h
half-life [4]: 276 min
bioavailability [5]: 20%

Compound: CCN1CCC(Nc2ccc3c(c2)C(=C(c2nc(C)c[nH]2)c2ccccc2F)C(=O)N3)CC1 (mixture of isomers)
AUC(0-inf) [3]: 1.03 µM·h
half-life [4]: 138 min
bioavailability [5]: 25%

The remaining lines, values ahead:

clearance [1]: 108 mL/min/kg
bioavailability [2]: 19%
Compound: CCN1CCC(Nc2ccc3c(c2)C(=C(c2ccccc2)c2nc4cc(OC)ccc4[nH]2)C(=O)N3)CC1 (mixture of isomers)

AUC(0-inf) [3]: 1.44 µM·h
half-life [4]: 342 min
bioavailability [5]: 37%
Compound: CCN1CCC(Nc2ccc3c(c2)C(=C(c2ccccc2)c2nc4ccccc4[nH]2)C(=O)N3)CC1 (mixture of isomers)

AUC(0-inf) [3]: 1.99 µM·h
half-life [4]: 264 min
bioavailability [5]: 63%
Compound: CCN1CCC(Nc2ccc3c(c2)C(=C(c2cccc(F)c2)c2nc4ccccc4[nH]2)C(=O)N3)CC1 (mixture of isomers)

AUC(0-inf) [3]: 1.5 µM·h
half-life [4]: 696 min
bioavailability [5]: 16%
Compound: CCN1CCC(Nc2ccc3c(c2)C(=C(c2ccccc2)c2ncc[nH]2)C(=O)N3)CC1 (mixture of isomers)

AUC(0-inf) [3]: 5.19 µM·h
half-life [4]: 432 min
bioavailability [5]: 59%
Compound: CCN1CCC(Nc2ccc3c(c2)C(=C(c2cc(F)cc(F)c2)c2nc(C)c[nH]2)C(=O)N3)CC1 (mixture of isomers)
